Experimental data from PMC12090182, “Repurposing of the RIPK1-Selective Benzo[1,4]oxazepin-4-one Scaffold for the Development of a Type III LIMK1/2 Inhibitor” (ACS Chemical Biology, 2025).

Columns and labels:
Test in all cases: biochemical
Format in all cases: binding
[1] = molecular target: 468 kinases including some pathogenic mutants (Homo sapiens, UniProt O14965); settings: AURKA (Entrez AURKA), 100 nM; read-out: Percent Control
[2] = molecular target: 468 kinases including some pathogenic mutants (Homo sapiens, UniProt P48729); settings: CSNK1A1 (Entrez CSNK1A1), 100 nM; read-out: Percent Control
Sequence of 468 kinases including some pathogenic mutants (Homo sapiens, UniProt P48729) (P48729 whole entry, change not shown): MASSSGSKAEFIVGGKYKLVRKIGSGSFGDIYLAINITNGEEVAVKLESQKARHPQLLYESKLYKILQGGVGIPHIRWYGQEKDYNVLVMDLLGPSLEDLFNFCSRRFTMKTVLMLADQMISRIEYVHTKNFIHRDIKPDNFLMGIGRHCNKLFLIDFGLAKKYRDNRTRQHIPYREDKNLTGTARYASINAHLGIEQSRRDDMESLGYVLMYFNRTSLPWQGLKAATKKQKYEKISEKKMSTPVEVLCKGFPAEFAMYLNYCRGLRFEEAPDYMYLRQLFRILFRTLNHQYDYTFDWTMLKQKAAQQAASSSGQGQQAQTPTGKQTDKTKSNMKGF

[3] = molecular target: 468 kinases including some pathogenic mutants (Homo sapiens, UniProt O15530); settings: PDPK1 (Entrez PDPK1), 100 nM; read-out: Percent Control
[4] = molecular target: 468 kinases including some pathogenic mutants (Homo sapiens, UniProt O00750); settings: PIK3C2B (Entrez PIK3C2B), 1000 nM; read-out: Percent Control
[5] = molecular target: 468 kinases including some pathogenic mutants (Homo sapiens, UniProt Q9UQ88); settings: CDC2L2 (Entrez CDC2L2), 100 nM; read-out: Percent Control
[6] = molecular target: 468 kinases including some pathogenic mutants (Homo sapiens, UniProt Q96D53); settings: ADCK4 (Entrez ADCK4), 100 nM; read-out: Percent Control
[7] = molecular target: 468 kinases including some pathogenic mutants (Homo sapiens, UniProt P41743); settings: PRKCI (Entrez PRKCI), 100 nM; read-out: Percent Control
Sequence of 468 kinases including some pathogenic mutants (Homo sapiens, UniProt P41743) (P41743 whole entry, change not shown): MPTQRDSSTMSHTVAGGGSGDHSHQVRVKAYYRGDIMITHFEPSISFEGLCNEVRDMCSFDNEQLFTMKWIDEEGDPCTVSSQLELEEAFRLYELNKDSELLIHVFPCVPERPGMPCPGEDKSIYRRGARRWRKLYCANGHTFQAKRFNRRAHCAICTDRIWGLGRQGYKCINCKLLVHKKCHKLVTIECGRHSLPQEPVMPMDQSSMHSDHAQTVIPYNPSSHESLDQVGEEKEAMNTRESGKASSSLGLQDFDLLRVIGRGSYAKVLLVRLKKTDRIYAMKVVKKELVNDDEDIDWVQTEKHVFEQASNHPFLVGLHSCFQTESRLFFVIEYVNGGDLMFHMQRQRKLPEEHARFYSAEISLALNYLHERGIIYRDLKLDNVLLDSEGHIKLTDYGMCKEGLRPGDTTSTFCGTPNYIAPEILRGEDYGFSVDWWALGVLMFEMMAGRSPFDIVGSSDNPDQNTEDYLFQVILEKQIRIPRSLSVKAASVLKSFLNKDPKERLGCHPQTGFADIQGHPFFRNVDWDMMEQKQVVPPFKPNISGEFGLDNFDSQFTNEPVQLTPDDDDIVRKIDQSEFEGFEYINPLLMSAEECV

[8] = molecular target: 468 kinases including some pathogenic mutants (Homo sapiens, UniProt O14730); settings: RIOK3 (Entrez RIOK3), 100 nM; read-out: Percent Control
[9] = molecular target: 468 kinases including some pathogenic mutants (Homo sapiens, UniProt Q6PHR2); settings: ULK3 (Entrez ULK3), 100 nM; read-out: Percent Control
Sequence of 468 kinases including some pathogenic mutants (Homo sapiens, UniProt Q6PHR2) (Q6PHR2 whole entry, change not shown): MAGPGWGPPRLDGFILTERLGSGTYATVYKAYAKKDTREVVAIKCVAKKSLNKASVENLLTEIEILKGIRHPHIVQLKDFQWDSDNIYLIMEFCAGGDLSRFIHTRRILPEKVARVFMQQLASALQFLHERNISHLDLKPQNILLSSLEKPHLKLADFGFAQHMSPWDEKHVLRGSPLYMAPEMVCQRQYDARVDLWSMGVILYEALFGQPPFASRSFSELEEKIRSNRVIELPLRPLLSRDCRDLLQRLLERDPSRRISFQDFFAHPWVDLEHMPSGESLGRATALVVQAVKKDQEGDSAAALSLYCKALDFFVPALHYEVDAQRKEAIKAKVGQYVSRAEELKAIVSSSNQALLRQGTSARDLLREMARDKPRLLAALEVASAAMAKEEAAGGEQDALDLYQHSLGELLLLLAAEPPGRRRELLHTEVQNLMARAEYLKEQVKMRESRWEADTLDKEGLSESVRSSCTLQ

[10] = molecular target: 468 kinases including some pathogenic mutants (Homo sapiens, UniProt Q9NRM7); settings: LATS2 (Entrez LATS2), 100 nM; read-out: Percent Control
[11] = molecular target: 468 kinases including some pathogenic mutants (Homo sapiens, UniProt P51812); settings: read-out: Percent Control
Sequence of 468 kinases including some pathogenic mutants (Homo sapiens, UniProt P51812) (P51812 whole entry, change not shown): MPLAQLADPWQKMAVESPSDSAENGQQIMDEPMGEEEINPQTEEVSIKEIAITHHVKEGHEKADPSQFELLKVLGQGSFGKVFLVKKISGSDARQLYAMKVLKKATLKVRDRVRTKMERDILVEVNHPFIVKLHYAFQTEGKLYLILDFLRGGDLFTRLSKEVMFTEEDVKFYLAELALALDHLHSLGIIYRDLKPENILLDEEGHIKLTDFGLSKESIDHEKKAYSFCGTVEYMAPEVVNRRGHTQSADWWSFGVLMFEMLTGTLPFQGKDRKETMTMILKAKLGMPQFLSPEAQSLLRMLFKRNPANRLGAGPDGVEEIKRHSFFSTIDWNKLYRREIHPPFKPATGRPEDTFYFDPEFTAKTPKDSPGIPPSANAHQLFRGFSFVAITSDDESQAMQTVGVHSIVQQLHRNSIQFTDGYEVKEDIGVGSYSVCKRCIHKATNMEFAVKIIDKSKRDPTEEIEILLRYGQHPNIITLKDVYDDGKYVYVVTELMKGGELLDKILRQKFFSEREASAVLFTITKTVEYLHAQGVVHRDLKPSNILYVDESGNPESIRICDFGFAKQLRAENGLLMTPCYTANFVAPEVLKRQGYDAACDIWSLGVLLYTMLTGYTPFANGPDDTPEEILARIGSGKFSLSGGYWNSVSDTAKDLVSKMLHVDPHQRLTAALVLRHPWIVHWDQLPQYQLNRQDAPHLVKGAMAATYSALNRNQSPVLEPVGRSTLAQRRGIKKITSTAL

[12] = molecular target: 468 kinases including some pathogenic mutants (Homo sapiens, UniProt P42685); settings: FRK (Entrez FRK), 100 nM; read-out: Percent Control
Sequence of 468 kinases including some pathogenic mutants (Homo sapiens, UniProt P42685) (P42685 whole entry, change not shown): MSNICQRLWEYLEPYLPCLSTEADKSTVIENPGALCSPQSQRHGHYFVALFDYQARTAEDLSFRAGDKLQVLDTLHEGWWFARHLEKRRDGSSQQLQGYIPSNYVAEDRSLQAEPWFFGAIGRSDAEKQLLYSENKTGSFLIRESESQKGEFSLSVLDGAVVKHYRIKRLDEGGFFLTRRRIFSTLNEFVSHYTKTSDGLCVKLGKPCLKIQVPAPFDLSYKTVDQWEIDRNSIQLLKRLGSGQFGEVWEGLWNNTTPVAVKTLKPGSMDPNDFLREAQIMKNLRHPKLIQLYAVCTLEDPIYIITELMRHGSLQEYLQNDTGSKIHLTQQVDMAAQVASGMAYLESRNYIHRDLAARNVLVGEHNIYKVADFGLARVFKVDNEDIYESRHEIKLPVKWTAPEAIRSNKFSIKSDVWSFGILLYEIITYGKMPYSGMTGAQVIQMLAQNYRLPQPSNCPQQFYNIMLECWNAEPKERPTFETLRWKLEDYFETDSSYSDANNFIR

[13] = molecular target: 468 kinases including some pathogenic mutants (Homo sapiens, UniProt Q2M2I8); settings: AAK1 (Entrez AAK1), 100 nM; read-out: Percent Control
[14] = molecular target: 468 kinases including some pathogenic mutants (Homo sapiens, UniProt Q9UEE5); settings: DRAK1 (Entrez STK17A), 100 nM; read-out: Percent Control
[15] = molecular target: 468 kinases including some pathogenic mutants (Homo sapiens, UniProt Q99755); settings: PIP5K1A (Entrez PIP5K1A), 100 nM; read-out: Percent Control
[16] = molecular target: 468 kinases including some pathogenic mutants (Homo sapiens, UniProt Q13164); settings: ERK5 (Entrez MAPK7), 100 nM; read-out: Percent Control
[17] = molecular target: 468 kinases including some pathogenic mutants (Homo sapiens, UniProt P07949, M918T); settings: read-out: Percent Control
[18] = molecular target: 468 kinases including some pathogenic mutants (Homo sapiens, UniProt P00519, T315I); settings: read-out: Percent Control
[19] = molecular target: 468 kinases including some pathogenic mutants (Homo sapiens, UniProt O94804); settings: LOK (Entrez STK10), 100 nM; read-out: Percent Control
[20] = molecular target: 468 kinases including some pathogenic mutants (Homo sapiens, UniProt P00533, DEL746-750); settings: read-out: Percent Control
Sequence of 468 kinases including some pathogenic mutants (Homo sapiens, UniProt P00533, DEL746-750) (P00533 other isoform, or with tags, fused parts or gaps DEL746-750): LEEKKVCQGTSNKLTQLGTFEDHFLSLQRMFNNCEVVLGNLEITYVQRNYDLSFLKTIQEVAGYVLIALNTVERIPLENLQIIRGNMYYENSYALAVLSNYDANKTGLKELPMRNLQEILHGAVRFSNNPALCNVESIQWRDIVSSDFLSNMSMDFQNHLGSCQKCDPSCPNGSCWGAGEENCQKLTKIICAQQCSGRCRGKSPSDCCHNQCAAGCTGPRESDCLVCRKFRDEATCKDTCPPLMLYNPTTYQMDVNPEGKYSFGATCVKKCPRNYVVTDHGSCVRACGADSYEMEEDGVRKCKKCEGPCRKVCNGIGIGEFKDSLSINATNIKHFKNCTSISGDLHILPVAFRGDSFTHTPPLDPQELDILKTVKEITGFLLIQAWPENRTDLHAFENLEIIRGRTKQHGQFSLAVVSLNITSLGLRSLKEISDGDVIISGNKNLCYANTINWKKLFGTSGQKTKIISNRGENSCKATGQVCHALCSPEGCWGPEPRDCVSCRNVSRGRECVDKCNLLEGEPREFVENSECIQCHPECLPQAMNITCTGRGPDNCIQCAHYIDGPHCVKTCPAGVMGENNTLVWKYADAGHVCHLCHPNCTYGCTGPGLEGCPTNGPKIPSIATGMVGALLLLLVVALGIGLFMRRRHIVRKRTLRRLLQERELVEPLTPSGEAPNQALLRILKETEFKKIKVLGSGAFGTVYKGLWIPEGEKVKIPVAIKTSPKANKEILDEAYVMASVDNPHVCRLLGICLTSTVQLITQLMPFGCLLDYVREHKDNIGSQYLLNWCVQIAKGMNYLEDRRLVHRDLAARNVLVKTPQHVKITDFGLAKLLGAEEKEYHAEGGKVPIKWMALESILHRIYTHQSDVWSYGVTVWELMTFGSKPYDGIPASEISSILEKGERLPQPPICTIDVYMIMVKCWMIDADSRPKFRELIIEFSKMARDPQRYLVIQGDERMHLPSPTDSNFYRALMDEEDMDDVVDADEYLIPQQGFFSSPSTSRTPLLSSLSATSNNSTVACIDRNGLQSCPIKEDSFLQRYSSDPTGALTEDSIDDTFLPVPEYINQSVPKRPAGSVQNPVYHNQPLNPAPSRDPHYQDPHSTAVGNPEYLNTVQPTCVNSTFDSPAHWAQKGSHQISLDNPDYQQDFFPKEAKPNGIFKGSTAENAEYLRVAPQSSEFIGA

[21] = molecular target: 468 kinases including some pathogenic mutants (Homo sapiens, UniProt O94768); settings: DRAK2 (Entrez STK17B), 100 nM; read-out: Percent Control
Sequence of 468 kinases including some pathogenic mutants (Homo sapiens, UniProt O94768) (O94768 whole entry, change not shown): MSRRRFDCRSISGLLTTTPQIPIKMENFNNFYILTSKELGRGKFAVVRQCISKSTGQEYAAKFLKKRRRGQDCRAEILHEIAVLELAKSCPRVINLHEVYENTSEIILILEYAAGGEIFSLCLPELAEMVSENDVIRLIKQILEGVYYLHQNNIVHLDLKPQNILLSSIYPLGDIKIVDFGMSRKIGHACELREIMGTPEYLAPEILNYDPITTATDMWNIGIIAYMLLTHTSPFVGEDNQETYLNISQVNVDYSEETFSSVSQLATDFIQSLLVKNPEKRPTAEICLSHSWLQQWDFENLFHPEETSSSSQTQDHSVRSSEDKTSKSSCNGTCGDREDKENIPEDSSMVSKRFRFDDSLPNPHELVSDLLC

[22] = molecular target: 468 kinases including some pathogenic mutants (Homo sapiens, UniProt O43318); settings: TAK1 (Entrez MAP3K7), 100 nM; read-out: Percent Control
[23] = molecular target: 468 kinases including some pathogenic mutants (Homo sapiens, UniProt Q13043); settings: MST1 (Entrez STK4), 100 nM; read-out: Percent Control
[24] = molecular target: 468 kinases including some pathogenic mutants (Homo sapiens, UniProt P52564); settings: MEK6 (Entrez MAP2K6), 1000 nM; read-out: Percent Control
Sequence of 468 kinases including some pathogenic mutants (Homo sapiens, UniProt P52564) (P52564 whole entry, change not shown): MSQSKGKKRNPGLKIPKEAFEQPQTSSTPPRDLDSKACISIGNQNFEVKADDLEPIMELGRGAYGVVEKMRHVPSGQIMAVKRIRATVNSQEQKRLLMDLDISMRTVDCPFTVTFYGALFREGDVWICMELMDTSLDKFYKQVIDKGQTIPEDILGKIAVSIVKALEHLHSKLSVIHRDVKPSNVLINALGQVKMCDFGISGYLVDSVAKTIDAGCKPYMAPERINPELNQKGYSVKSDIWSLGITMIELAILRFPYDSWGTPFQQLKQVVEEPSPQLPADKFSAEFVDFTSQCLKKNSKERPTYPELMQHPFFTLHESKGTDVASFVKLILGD

[25] = molecular target: 468 kinases including some pathogenic mutants (Homo sapiens, UniProt Q13882); settings: BRK (Entrez PTK6), 100 nM; read-out: Percent Control
Sequence of 468 kinases including some pathogenic mutants (Homo sapiens, UniProt Q13882) (Q13882 whole entry, change not shown): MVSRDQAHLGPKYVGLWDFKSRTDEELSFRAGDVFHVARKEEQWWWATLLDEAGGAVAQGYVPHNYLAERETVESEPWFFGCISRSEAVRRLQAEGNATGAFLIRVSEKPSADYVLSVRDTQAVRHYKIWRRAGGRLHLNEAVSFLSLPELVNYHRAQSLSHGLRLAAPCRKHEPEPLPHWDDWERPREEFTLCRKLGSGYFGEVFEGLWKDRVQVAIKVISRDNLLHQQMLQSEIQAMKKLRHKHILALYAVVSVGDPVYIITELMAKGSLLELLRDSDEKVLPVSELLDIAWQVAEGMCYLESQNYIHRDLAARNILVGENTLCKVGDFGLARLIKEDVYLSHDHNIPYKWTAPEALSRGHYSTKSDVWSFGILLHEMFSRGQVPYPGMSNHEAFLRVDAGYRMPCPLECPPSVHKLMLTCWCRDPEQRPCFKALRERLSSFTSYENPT

[26] = molecular target: 468 kinases including some pathogenic mutants (Homo sapiens, UniProt Q16620); settings: TRKB (Entrez NTRK2), 100 nM; read-out: Percent Control
[27] = molecular target: 468 kinases including some pathogenic mutants (Homo sapiens, UniProt Q00536); settings: PCTK1 (Entrez CDK16), 1000 nM; read-out: Percent Control
[28] = molecular target: 468 kinases including some pathogenic mutants (Homo sapiens, UniProt Q13627); settings: DYRK1A (Entrez DYRK1A), 100 nM; read-out: Percent Control

CN1C(=O)[C@@H](N2CCc3c(nn(Cc4ccccc4)c3C(N)=O)C2=O)COc2cc(Cl)ccc21 [Compound 10, (S)-2-benzyl-6-(8-chloro-5-methyl-4-oxo-2,3,4,5-tetrahydrobenzo[b][1,4]oxazepin-3-yl)-7-oxo-4,5,6,7-tetrahydro-2H-pyrazolo[3,4-c]pyridine-3-carboxamide]
remaining activity at 0.1 µM [1]: 58% | remaining activity at 0.1 µM [2]: 73% | remaining activity at 0.1 µM [3]: 100% | remaining activity at 1 µM [4]: 100% | remaining activity at 0.1 µM [5]: 100% | remaining activity at 0.1 µM [6]: 88% | remaining activity at 0.1 µM [7]: 81% | remaining activity at 0.1 µM [8]: 63% | remaining activity at 0.1 µM [9]: 100% | remaining activity at 0.1 µM [10]: 68% | remaining activity at 1 µM ([11]; RSK2(Kin.Dom.1-N-terminal) (Entrez RPS6KA3), 1000 nM): 100% | remaining activity at 0.1 µM ([11]; RSK2(Kin.Dom.2-C-terminal) (Entrez RPS6KA3), 100 nM): 74% | remaining activity at 0.1 µM [12]: 75% | remaining activity at 0.1 µM [13]: 72% | remaining activity at 0.1 µM [14]: 84% | remaining activity at 0.1 µM [15]: 100% | remaining activity at 0.1 µM [16]: 85% | remaining activity at 0.1 µM [17]: 82% | remaining activity at 0.1 µM [18]: 100% | remaining activity at 0.1 µM [19]: 57% | remaining activity at 0.1 µM [20]: 78% | remaining activity at 0.1 µM [21]: 84% | remaining activity at 0.1 µM [22]: 100% | remaining activity at 0.1 µM [23]: 58% | remaining activity at 1 µM [24]: 100% | remaining activity at 0.1 µM [25]: 81% | remaining activity at 0.1 µM [26]: 88% | remaining activity at 1 µM [27]: 100% | remaining activity at 0.1 µM [28]: 89%
